Measured values taken from the kinase profiling compilation of Christmann-Franck et al. (2016).

Assays:
Test in all cases: radiometric filter-binding kinase assay, Kinase HotSpot
Settings in all cases: compound 0.5 µM; ATP 10 µM
ACVR1 (human) = ACVR1 (human) (UniProt Q04771)
AURKB (human) = AURKB (human) (UniProt Q96GD4)
BTK (human) = BTK (human) (UniProt Q06187)
CDK2 CCNE1 (human) = CDK2 CCNE1 (human) (UniProt P24941+P24864)
CDK7 CCNH MNAT1 (human) = CDK7 CCNH MNAT1 (human) (UniProt P50613+P51948+P51946)
CHEK1 (human) = CHEK1 (human) (UniProt O14757)
CLK2 (human) = CLK2 (human) (UniProt P49760)
CSNK1D (human) = CSNK1D (human) (UniProt P48730)
DAPK2 (human) = DAPK2 (human) (UniProt Q9UIK4)
EPHA3 (human) = EPHA3 (human) (UniProt P29320)
EPHB4 (human) = EPHB4 (human) (UniProt P54760)
ERBB4 (human) = ERBB4 (human) (UniProt Q15303)
FGFR2 (human) = FGFR2 (human) (UniProt P21802)
FRK (human) = FRK (human) (UniProt P42685)
HIPK2 (human) = HIPK2 (human) (UniProt Q9H2X6)
IRAK1 (human) = IRAK1 (human) (UniProt P51617)
[1] = molecular target: JAK1 JH1 catalytic (human) (UniProt P23458)
MAPK3 (human) = MAPK3 (human) (UniProt P27361)
MATK (human) = MATK (human) (UniProt P42679)
MUSK (human) = MUSK (human) (UniProt O15146)
MYLK (human) = MYLK (human) (UniProt Q15746)
MYLK2 (human) = MYLK2 (human) (UniProt Q9H1R3)
NEK1 (human) = NEK1 (human) (UniProt Q96PY6)
NEK2 (human) = NEK2 (human) (UniProt P51955)
NEK4 (human) = NEK4 (human) (UniProt P51957)
NEK6 (human) = NEK6 (human) (UniProt Q9HC98)
NEK9 (human) = NEK9 (human) (UniProt Q8TD19)
NUAK2 (human) = NUAK2 (human) (UniProt Q9H093)
PDPK1 (human) = PDPK1 (human) (UniProt O15530)
PLK3 (human) = PLK3 (human) (UniProt Q9H4B4)
PRKCD (human) = PRKCD (human) (UniProt Q05655)
PRKCH (human) = PRKCH (human) (UniProt P24723)
PRKD2 (human) = PRKD2 (human) (UniProt Q9BZL6)
PTK2B (human) = PTK2B (human) (UniProt Q14289)
RET (human) = RET (human) (UniProt P07949)
RPS6KA5 KD2 (human) = RPS6KA5 KD2 (human) (UniProt O75582)
SIK2 (human) = SIK2 (human) (UniProt Q9H0K1)
SRMS (human) = SRMS (human) (UniProt Q9H3Y6)
SRPK2 (human) = SRPK2 (human) (UniProt P78362)
TBK1 (human) = TBK1 (human) (UniProt Q9UHD2)
TEC (human) = TEC (human) (UniProt P42680)
TGFBR1 (human) = TGFBR1 (human) (UniProt P36897)

MYLK2 (human), sequence (Q9H1R3 whole entry, looked up): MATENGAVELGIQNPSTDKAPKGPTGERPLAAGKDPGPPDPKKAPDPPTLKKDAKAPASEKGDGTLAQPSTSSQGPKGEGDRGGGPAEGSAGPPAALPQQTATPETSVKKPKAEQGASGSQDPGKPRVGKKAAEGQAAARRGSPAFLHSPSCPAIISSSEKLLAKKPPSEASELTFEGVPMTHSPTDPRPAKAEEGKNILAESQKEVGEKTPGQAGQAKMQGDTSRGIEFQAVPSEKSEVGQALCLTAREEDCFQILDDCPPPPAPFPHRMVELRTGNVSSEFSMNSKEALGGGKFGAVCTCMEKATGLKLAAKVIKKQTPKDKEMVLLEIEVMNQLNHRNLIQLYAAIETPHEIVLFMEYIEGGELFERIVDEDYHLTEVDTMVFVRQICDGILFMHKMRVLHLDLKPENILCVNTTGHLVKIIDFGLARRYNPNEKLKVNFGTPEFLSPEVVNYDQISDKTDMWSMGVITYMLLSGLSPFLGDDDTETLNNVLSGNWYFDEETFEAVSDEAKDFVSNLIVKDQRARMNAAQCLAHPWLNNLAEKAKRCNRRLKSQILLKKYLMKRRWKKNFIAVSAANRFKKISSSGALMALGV
CDK7 CCNH MNAT1 (human), sequence (P50613 whole entry, looked up): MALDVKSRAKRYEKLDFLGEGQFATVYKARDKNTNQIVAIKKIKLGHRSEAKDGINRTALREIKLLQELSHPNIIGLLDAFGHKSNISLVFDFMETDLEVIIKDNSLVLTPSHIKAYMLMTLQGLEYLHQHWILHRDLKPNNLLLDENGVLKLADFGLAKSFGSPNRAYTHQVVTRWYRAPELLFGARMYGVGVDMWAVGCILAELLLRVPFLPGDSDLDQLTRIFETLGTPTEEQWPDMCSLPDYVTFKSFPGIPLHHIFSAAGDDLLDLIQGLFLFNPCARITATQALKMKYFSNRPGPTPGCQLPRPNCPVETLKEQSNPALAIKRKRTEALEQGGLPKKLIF
CDK7 CCNH MNAT1 (human), sequence (P51946 whole entry, looked up): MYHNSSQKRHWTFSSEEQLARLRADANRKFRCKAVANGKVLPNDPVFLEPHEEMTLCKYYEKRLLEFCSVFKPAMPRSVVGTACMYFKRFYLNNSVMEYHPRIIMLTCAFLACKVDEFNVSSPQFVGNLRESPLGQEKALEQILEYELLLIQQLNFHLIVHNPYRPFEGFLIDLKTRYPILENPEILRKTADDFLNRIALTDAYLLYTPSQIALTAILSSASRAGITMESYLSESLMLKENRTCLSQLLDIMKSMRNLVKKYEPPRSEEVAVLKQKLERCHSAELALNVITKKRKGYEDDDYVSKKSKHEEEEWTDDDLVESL
CDK7 CCNH MNAT1 (human), sequence (P51948 whole entry, looked up): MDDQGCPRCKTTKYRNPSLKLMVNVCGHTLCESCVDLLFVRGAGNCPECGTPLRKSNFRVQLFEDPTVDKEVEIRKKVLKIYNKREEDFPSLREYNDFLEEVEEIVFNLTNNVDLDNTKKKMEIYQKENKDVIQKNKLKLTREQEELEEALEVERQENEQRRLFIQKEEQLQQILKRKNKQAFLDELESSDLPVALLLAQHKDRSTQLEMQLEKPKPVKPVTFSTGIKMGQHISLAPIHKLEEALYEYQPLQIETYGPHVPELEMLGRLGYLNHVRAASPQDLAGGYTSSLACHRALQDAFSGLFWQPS
PRKCD (human), sequence (Q05655 whole entry, looked up): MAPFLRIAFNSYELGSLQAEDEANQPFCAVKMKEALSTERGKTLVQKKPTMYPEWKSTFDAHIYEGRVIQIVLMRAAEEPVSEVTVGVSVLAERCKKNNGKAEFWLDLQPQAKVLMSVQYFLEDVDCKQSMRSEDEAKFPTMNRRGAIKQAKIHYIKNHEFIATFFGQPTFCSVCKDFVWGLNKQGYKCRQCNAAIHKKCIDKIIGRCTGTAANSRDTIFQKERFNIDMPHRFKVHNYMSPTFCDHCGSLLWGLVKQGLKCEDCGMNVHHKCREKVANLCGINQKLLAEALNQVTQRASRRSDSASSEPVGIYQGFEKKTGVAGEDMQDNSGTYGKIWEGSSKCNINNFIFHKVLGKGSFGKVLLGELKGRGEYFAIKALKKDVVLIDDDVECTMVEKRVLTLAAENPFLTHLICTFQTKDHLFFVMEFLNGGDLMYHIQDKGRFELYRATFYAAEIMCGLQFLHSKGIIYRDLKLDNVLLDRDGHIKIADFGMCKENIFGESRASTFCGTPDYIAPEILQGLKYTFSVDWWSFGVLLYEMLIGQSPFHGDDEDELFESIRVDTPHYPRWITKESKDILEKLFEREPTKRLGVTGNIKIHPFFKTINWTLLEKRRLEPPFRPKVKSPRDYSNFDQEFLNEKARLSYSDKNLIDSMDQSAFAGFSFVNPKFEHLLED
TEC (human), sequence (P42680 whole entry, looked up): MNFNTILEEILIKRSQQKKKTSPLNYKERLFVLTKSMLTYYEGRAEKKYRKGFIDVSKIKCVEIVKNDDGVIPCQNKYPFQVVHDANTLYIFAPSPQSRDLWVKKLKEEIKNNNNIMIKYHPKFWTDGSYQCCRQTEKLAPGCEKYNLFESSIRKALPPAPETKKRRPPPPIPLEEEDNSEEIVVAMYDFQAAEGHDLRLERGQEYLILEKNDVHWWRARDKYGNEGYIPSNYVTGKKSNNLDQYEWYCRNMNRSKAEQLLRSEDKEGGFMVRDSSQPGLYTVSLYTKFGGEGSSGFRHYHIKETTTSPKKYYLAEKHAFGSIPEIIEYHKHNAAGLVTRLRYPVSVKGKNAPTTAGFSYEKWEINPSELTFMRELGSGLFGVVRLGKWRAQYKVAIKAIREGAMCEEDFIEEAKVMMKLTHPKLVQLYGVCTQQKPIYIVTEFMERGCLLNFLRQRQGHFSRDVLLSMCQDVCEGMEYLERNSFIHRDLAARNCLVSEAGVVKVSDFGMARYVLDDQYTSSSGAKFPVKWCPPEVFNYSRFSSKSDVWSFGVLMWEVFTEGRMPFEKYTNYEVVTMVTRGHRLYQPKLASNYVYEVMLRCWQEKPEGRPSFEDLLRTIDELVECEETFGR
PDPK1 (human), sequence (O15530 whole entry, looked up): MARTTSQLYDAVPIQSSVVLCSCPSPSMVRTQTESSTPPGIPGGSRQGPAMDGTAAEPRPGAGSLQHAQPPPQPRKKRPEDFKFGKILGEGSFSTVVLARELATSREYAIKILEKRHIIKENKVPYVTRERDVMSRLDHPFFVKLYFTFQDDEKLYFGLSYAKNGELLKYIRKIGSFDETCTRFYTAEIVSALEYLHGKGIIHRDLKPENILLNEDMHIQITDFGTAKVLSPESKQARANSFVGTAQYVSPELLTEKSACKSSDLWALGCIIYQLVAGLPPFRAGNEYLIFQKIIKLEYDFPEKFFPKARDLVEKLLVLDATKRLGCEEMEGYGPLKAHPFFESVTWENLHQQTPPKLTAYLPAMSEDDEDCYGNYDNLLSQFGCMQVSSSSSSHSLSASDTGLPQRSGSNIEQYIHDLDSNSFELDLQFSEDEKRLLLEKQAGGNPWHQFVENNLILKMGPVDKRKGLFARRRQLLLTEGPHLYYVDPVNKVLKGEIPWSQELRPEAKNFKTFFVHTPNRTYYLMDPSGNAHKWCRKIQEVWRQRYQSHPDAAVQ
DAPK2 (human), sequence (Q9UIK4 whole entry, looked up): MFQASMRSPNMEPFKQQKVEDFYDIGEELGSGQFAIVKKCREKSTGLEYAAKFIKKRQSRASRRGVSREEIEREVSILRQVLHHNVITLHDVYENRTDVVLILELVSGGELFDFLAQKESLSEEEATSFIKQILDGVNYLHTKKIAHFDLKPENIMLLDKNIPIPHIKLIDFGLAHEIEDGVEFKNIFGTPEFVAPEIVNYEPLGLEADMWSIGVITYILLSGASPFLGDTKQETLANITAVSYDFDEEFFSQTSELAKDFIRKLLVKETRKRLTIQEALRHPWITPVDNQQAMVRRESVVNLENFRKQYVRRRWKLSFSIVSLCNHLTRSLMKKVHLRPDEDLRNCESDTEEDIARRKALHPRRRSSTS
RPS6KA5 KD2 (human), sequence (O75582 whole entry, looked up): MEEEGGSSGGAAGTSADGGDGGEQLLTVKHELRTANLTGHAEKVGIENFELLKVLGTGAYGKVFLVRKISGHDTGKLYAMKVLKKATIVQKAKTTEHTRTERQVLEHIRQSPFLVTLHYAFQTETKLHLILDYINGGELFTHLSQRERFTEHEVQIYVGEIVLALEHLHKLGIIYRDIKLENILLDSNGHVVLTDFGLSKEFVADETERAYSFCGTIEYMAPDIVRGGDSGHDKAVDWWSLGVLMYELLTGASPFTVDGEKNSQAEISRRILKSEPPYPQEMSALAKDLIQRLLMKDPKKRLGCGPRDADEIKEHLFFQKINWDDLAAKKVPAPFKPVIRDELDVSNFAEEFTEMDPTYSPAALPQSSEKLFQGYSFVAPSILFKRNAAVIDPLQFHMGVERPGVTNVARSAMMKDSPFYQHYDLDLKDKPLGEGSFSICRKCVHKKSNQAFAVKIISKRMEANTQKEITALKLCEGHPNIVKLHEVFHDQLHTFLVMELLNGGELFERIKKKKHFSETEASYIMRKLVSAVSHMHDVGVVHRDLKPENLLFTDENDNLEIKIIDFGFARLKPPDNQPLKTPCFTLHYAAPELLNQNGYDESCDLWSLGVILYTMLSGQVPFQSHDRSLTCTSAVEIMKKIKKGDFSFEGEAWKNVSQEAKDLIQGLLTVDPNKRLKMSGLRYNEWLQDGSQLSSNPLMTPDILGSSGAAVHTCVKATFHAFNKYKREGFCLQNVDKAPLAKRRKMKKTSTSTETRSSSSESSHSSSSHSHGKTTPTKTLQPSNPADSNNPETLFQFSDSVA
MAPK3 (human), sequence (P27361 whole entry, looked up): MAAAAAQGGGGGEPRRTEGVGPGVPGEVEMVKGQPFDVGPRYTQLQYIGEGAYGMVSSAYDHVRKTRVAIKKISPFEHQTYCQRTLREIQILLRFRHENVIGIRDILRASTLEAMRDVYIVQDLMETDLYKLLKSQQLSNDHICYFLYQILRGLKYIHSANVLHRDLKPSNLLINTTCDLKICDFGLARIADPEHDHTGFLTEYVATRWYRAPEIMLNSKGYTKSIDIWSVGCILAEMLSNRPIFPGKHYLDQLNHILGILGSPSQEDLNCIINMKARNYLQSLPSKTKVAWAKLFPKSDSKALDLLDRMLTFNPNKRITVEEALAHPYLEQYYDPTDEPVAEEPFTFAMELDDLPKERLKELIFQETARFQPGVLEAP

## CCCCc1c(-c2ccc(O)cc2)[nH]c2nccnc12
ACVR1 (human)
  residual activity: 83.8%
AURKB (human)
  residual activity: 66.9%
BTK (human)
  residual activity: 61.7%
CDK2 CCNE1 (human)
  residual activity: 29.9%
CDK7 CCNH MNAT1 (human)
  residual activity: 88.2%
CHEK1 (human)
  residual activity: 92.9%
CLK2 (human)
  residual activity: 76.4%
CSNK1D (human)
  residual activity: 93.7%
DAPK2 (human)
  residual activity: 101%
EPHA3 (human)
  residual activity: 95%
EPHB4 (human)
  residual activity: 86%
ERBB4 (human)
  residual activity: 102%
FGFR2 (human)
  residual activity: 94.5%
FRK (human)
  residual activity: 87.6%
HIPK2 (human)
  residual activity: 88.5%
IRAK1 (human)
  residual activity: 63.4%
[1]
  residual activity: 53.8%
MAPK3 (human)
  residual activity: 101%
MATK (human)
  residual activity: 109%
MUSK (human)
  residual activity: 82%
MYLK (human)
  residual activity: 101%
MYLK2 (human)
  residual activity: 95.7%
NEK1 (human)
  residual activity: 92.2%
NEK2 (human)
  residual activity: 106%
NEK4 (human)
  residual activity: 82.2%
NEK6 (human)
  residual activity: 123%
NEK9 (human)
  residual activity: 105%
NUAK2 (human)
  residual activity: 64.8%
PDPK1 (human)
  residual activity: 95.9%
PLK3 (human)
  residual activity: 90.6%
PRKCD (human)
  residual activity: 102%
PRKCH (human)
  residual activity: 90.5%
PRKD2 (human)
  residual activity: 95.3%
PTK2B (human)
  residual activity: 99%
RET (human)
  residual activity: 52.6%
RPS6KA5 KD2 (human)
  residual activity: 101%
SIK2 (human)
  residual activity: 95.9%
SRMS (human)
  residual activity: 95.4%
SRPK2 (human)
  residual activity: 110%
TBK1 (human)
  residual activity: 82.1%
TEC (human)
  residual activity: 87.3%
TGFBR1 (human)
  residual activity: 100%
